{
  "source": "patent US20230234941A1",
  "about": "“Salts of Compound and Pharmaceutical Compositions Containing the Same” (Shenzhen Forward Pharmaceuticals Co., Limited., priority 2020, published 2023)",
  "assay": "Chemical and physical stability of the salts at the end of the preparation",
  "assay_type": "physicochemical",
  "source_text": "It is crucial for drug development whether the salts obtained as above have chemical and physical stability at the end of the preparation. The chemical and physical stability of the salts at the end of the preparation includes: […]",
  "note": "Counter-ions that a name gives are not always drawn. Like-named read-outs stand apart in the source and are kept apart here.",
  "data": [
    {"smiles": "C=CC(=O)Nc1cc(Nc2ncnc(-c3cn(C)c4ccccc34)n2)c(OC)cc1N(C)CCN(C)C", "note": "[Example 11]", "values": [
      {"measurement": "chemical and physical stability at the end of the preparation", "setting": "listed as amorphous nitrate salt", "result": "at least chemically unstable"},
      {"measurement": "chemical and physical stability at the end of the preparation", "setting": "listed as nitrate salt", "result": "chemically unstable"}
    ]},
    {"smiles": "C=CC(=O)Nc1cc(Nc2ncnc(-c3cn(C)c4ccccc34)n2)c(OC)cc1N(C)CCN(C)C", "note": "[Example 12]", "values": [
      {"measurement": "chemical and physical stability at the end of the preparation", "setting": "listed as amorphous sulfate salt", "result": "chemically stable at the end of the preparation, but was physically unstable due to a certain hygroscopicity"},
      {"measurement": "chemical and physical stability at the end of the preparation", "setting": "listed as sulfate salt", "result": "physically unstable"}
    ]},
    {"smiles": "C=CC(=O)Nc1cc(Nc2ncnc(-c3cn(C)c4ccccc34)n2)c(OC)cc1N(C)CCN(C)C", "note": "[Example 13]", "values": [
      {"measurement": "chemical and physical stability at the end of the preparation", "setting": "listed as 2 eq. p-tosylate salt", "result": "physically unstable"},
      {"measurement": "chemical and physical stability at the end of the preparation", "setting": "listed as amorphous 2 eq. p-tosylate salt", "result": "chemically stable and reasonable in terms of the base:acid stoichiometric ratio at the end of the preparation, but was physically unstable due to caking and fusion to a glassy state upon short exposure to environmental conditions"}
    ]},
    {"smiles": "C=CC(=O)Nc1cc(Nc2ncnc(-c3cn(C)c4ccccc34)n2)c(OC)cc1N(C)CCN(C)C", "note": "[Example 14]", "values": [
      {"measurement": "chemical and physical stability at the end of the preparation", "setting": "listed as Y11526-25-FD13-1,4-dioxane", "result": "chemically and physically stable"}
    ]},
    {"smiles": "C=CC(=O)Nc1cc(Nc2ncnc(-c3cn(C)c4ccccc34)n2)c(OC)cc1N(C)CCN(C)C", "note": "[Example 15]", "values": [
      {"measurement": "chemical and physical stability at the end of the preparation", "setting": "listed as Y11526-25-FD12-1,4-dioxane", "result": "chemically and physically stable"}
    ]},
    {"smiles": "C=CC(=O)Nc1cc(Nc2ncnc(-c3cn(C)c4ccccc34)n2)c(OC)cc1N(C)CCN(C)C", "note": "[Example 16]", "values": [
      {"measurement": "chemical and physical stability at the end of the preparation", "setting": "listed as L-malate salt", "result": "chemically unstable"},
      {"measurement": "chemical and physical stability at the end of the preparation", "setting": "listed as amorphous L-malate salt", "result": "at least chemically unstable"}
    ]},
    {"smiles": "C=CC(=O)Nc1cc(Nc2ncnc(-c3cn(C)c4ccccc34)n2)c(OC)cc1N(C)CCN(C)C", "note": "[Example 17]", "values": [
      {"measurement": "chemical and physical stability at the end of the preparation", "setting": "listed as 1 eq. citrate salt", "result": "chemically unstable"},
      {"measurement": "chemical and physical stability at the end of the preparation", "setting": "listed as amorphous 1 eq. citrate salt", "result": "at least chemically unstable"}
    ]},
    {"smiles": "C=CC(=O)Nc1cc(Nc2ncnc(-c3cn(C)c4ccccc34)n2)c(OC)cc1N(C)CCN(C)C", "note": "[Example 18]", "values": [
      {"measurement": "chemical and physical stability at the end of the preparation", "setting": "listed as 1 eq. L-tartrate", "result": "chemically unstable"},
      {"measurement": "chemical and physical stability at the end of the preparation", "setting": "listed as amorphous 1 eq. L-tartrate", "result": "chemically unstable"},
      {"measurement": "chemical and physical stability at the end of the preparation", "setting": "listed as amorphous 1 eq. L-tartrate salt", "result": "at least chemically unstable"}
    ]},
    {"smiles": "C=CC(=O)Nc1cc(Nc2ncnc(-c3cn(C)c4ccccc34)n2)c(OC)cc1N(C)CCN(C)C", "note": "[sulfosalicylate salt]", "values": [
      {"measurement": "chemical and physical stability at the end of the preparation", "result": "chemically and physically stable"},
      {"measurement": "chemical and physical stability at the end of the preparation", "setting": "listed as amorphous sulfosalicylate salt", "result": "chemically and physically stable"}
    ]}
  ]
}
